{"source": "patent US20220288048A1", "about": "“PIMAVANSERIN FOR TREATING SCHIZOPHRENIA OR FOR TREATING PSYCHOSIS SECONDARY TO NEURODEGENERATIVE DISORDERS OR DEPRESSIVE DISORDER” (ACADIA Pharmaceuticals Inc., priority 2019, published 2022)", "test_system": "adult schizophrenia patients with a persistent inadequate response to their existing antipsychotic therapy", "assay": "6-week study of pimavanserin or placebo added to existing antipsychotic treatment: efficacy rating scales", "type": "in vivo, human", "parameters": "key to Marder Disorg, LSM Change from Baseline at W6 / Marder Uncntl, LSM Change from Baseline at W6 / Marder AnxDep, LSM Change from Baseline at W6: PANSS factor score points; PANSS items rated on a 7-point scale; CGI-I, LSM at W6 (column head: Change from Baseline at W6) / DAI-10, LSM Change from Baseline at W6 / KSS, LSM Change from Baseline at W6 / CDSS, LSM Change from Baseline at W6 / SF36 MH, LSM Change from Baseline at W6: scale not given here", "experimental": "The effect of pimavanserin as an adjunctive treatment in adult schizophrenia patients with a persistent inadequate response (i.e., partial responders) to their existing antipsychotic therapy was tested. 396 patients with moderate-to-severe psychotic symptoms were randomized to receive either pimavanserin or placebo added to existing antipsychotic treatment. […] Dosages of background oral antipsychotics could not be changed within four weeks of screening and dosages of long-acting injectables (LAI) could not be changed within 16 weeks of screening. […] Patients were administered a daily dose of pimavanserin or a placebo for six weeks. The dose started at 20 mg and could be adjusted to 34 mg or 10 mg between weeks 1 and 3. The majority of patients (56%) completed the study at the highest dose level. Patients were evaluated at baseline and on a weekly basis according to the clinical rating scale Positive and Negative Symptom Scale (PANSS). The PANSS is a 30-item, 7-point rating system that was developed to cover a range of negative symptoms not adequately measured by the Brief Psychiatric Rating Scale. It has sections that specifically measure positive symptoms, negative symptoms, and general psychopathology in schizophrenic subjects. The PANSS is widely used in trials of antipsychotic drug treatment, and has been formally validated for such use. A subset of 5 of the PANSS factors, the […] factors, were also evaluated. Other clinical rating scales that were assessed were the Clinical Global Impression Scale (CGI), Personal and Social Performance Scale (PSP), drug attitude inventory (DAI-10), Karolinska Sleepiness Scale (KSS), Calgary Depression Scale for Schizophrenia (CDSS), 36-item Short Form Physical Health evaluation ([…]) and 36-item Short Form Mental Health evaluation […].", "key": {"[1]": {"conditions": "European sites subgroup, Week 6"}, "[2]": {"conditions": "European sites subgroup, Week 6, listed as pimavanserin"}, "[3]": {"conditions": "FAS population, W6, Missing as Worsen"}}}
{"smiles": "CC(C)COc1ccc(CNC(=O)N(Cc2ccc(F)cc2)C2CCN(C)CC2)cc1", "note": "[Pimavanserin, N-(4-Fluorophenylmethyl)-N-(1-methylpiperidin-4-yl)-N′-(4-(2-methylpropyloxy)phenylmethyl)carbamide]", "values": [{"measurement": "PANSS Negative Symptoms Subscale, LS Mean Change at Week 6", "setting": "Europe subgroup", "value": "−2.9"}, {"measurement": "PANSS Positive Symptoms Subscale, LS Mean Change at Week 6", "setting": "Europe subgroup", "value": "−5.5"}, {"measurement": "PANSS Negative Symptoms Subscale, Cohen's d Effect Size", "setting": "Europe subgroup, Week 6", "value": 0.296}, {"measurement": "PANSS Negative Symptoms Subscale, LS Mean (SE) Difference", "setting": "Europe subgroup, Week 6", "value": "−1.1"}, {"measurement": "PANSS Positive Symptoms Subscale, Cohen's d Effect Size", "setting": "Europe subgroup, Week 6", "value": 0.195}, {"measurement": "PANSS Positive Symptoms Subscale, LS Mean (SE) Difference", "setting": "Europe subgroup, Week 6", "value": "−0.8 (0.49)"}, {"measurement": "CGI-S score, Change from Baseline to Week 6, Mean (SE)", "setting": "European sites subgroup", "value": "−0.8 (0.07)"}, {"measurement": "CGI-S score, Week 6, Mean (SE)", "setting": "European sites subgroup", "value": "3.8 (0.08)"}, {"measurement": "PANSS total score, Change from Baseline to Week 6, Mean (SE)", "setting": "European sites subgroup", "value": "−16.0 (1.06)"}, {"measurement": "PANSS total score, Week 6, Mean (SE)", "setting": "European sites subgroup", "value": "73.2 (1.18)"}, {"measurement": "CGI-S score, Diff in MMRM LSM (SE), pimavanserin − placebo", "setting": "[1]", "value": "−0.2 (0.09)"}, {"measurement": "CGI-S score, Effect Size (Cohen's d)", "setting": "[1]", "value": 0.266}, {"measurement": "PANSS total score, Diff in MMRM LSM (SE), pimavanserin − placebo", "setting": "[1]", "value": "−3.1 (1.37)"}, {"measurement": "PANSS total score, Effect Size (Cohen's d)", "setting": "[1]", "value": 0.261}, {"measurement": "CGI-S score, Diff in MMRM LSM (SE), pimavanserin − placebo", "setting": "[2]", "value": "−0.2"}, {"measurement": "PANSS total score, Diff in MMRM LSM (SE), pimavanserin − placebo", "setting": "[2]", "value": "−3.1"}, {"measurement": "CDSS, LSM Change from Baseline at W6", "setting": "FAS Population, OC, ANCOVA", "value": "−0.6"}, {"measurement": "DAI-10, LSM Change from Baseline at W6", "setting": "FAS Population, OC, ANCOVA", "value": 0.4}, {"measurement": "PSP, LSM Change from Baseline at W6", "setting": "FAS Population, OC, ANCOVA", "value": 6.9}, {"measurement": "SF36 MH, LSM Change from Baseline at W6", "setting": "FAS Population, OC, ANCOVA", "value": 5.6}, {"measurement": "SF36 PH, LSM Change from Baseline at W6", "setting": "FAS Population, OC, ANCOVA", "value": 0.46}, {"measurement": "CDSS, Effect Size", "setting": "FAS Population, OC, ANCOVA, W6", "value": 0.09}, {"measurement": "CDSS, Treatment group Comparison (PIM-PBO) LSM", "setting": "FAS Population, OC, ANCOVA, W6", "value": "−0.2"}, {"measurement": "DAI-10, Effect Size", "setting": "FAS Population, OC, ANCOVA, W6", "value": "Neg"}, {"measurement": "DAI-10, Treatment group Comparison (PIM-PBO) LSM", "setting": "FAS Population, OC, ANCOVA, W6", "value": "−0.0"}, {"measurement": "PSP, Effect Size", "setting": "FAS Population, OC, ANCOVA, W6", "value": 0.15}, {"measurement": "PSP, Treatment group Comparison (PIM-PBO) LSM", "setting": "FAS Population, OC, ANCOVA, W6", "value": 1.3}, {"measurement": "SF36 MH, Effect Size", "setting": "FAS Population, OC, ANCOVA, W6", "value": 0.11}, {"measurement": "SF36 MH, Treatment group Comparison (PIM-PBO) LSM", "setting": "FAS Population, OC, ANCOVA, W6", "value": 1.0}, {"measurement": "SF36 PH, Effect Size", "setting": "FAS Population, OC, ANCOVA, W6", "value": 0.00}, {"measurement": "SF36 PH, Treatment group Comparison (PIM-PBO) LSM", "setting": "FAS Population, OC, ANCOVA, W6", "value": 0.0}, {"measurement": "CGI-I, LSM at W6 (column head: Change from Baseline at W6)", "setting": "FAS Population, OC, MMRM", "value": 2.9}, {"measurement": "KSS, LSM Change from Baseline at W6", "setting": "FAS Population, OC, MMRM", "value": "−0.5"}, {"measurement": "Marder AnxDep, LSM Change from Baseline at W6", "setting": "FAS Population, OC, MMRM", "value": "−2.3"}, {"measurement": "Marder Disorg, LSM Change from Baseline at W6", "setting": "FAS Population, OC, MMRM", "value": "−2.5"}, {"measurement": "Marder Pos, LSM Change from Baseline at W6", "setting": "FAS Population, OC, MMRM", "value": "−5.5"}, {"measurement": "Marder Uncntl, LSM Change from Baseline at W6", "setting": "FAS Population, OC, MMRM", "value": "−1.7"}, {"measurement": "PANSS GenPsy, LSM Change from Baseline at W6", "setting": "FAS Population, OC, MMRM", "value": "−7.2"}, {"measurement": "PANSS Pos, LSM Change from Baseline at W6", "setting": "FAS Population, OC, MMRM", "value": "−5.4"}, {"measurement": "CGI-I, Effect Size", "setting": "FAS Population, OC, MMRM, W6", "value": 0.08}, {"measurement": "CGI-I, Treatment group Comparison (PIM-PBO) LSM", "setting": "FAS Population, OC, MMRM, W6", "value": "−0.1"}, {"measurement": "KSS, Effect Size", "setting": "FAS Population, OC, MMRM, W6", "value": 0.23}, {"measurement": "KSS, Treatment group Comparison (PIM-PBO) LSM", "setting": "FAS Population, OC, MMRM, W6", "value": "−0.3"}, {"measurement": "Marder AnxDep, Effect Size", "setting": "FAS Population, OC, MMRM, W6", "value": 0.02}, {"measurement": "Marder AnxDep, Treatment group Comparison (PIM-PBO) LSM", "setting": "FAS Population, OC, MMRM, W6", "value": "−0.0"}, {"measurement": "Marder Disorg, Effect Size", "setting": "FAS Population, OC, MMRM, W6", "value": 0.18}, {"measurement": "Marder Disorg, Treatment group Comparison (PIM-PBO) LSM", "setting": "FAS Population, OC, MMRM, W6", "value": "−0.5"}, {"measurement": "Marder Pos, Effect Size", "setting": "FAS Population, OC, MMRM, W6", "value": 0.16}, {"measurement": "Marder Pos, Treatment group Comparison (PIM-PBO) LSM", "setting": "FAS Population, OC, MMRM, W6", "value": "−0.8"}, {"measurement": "Marder Uncntl, Effect Size", "setting": "FAS Population, OC, MMRM, W6", "value": 0.01}, {"measurement": "Marder Uncntl, Treatment group Comparison (PIM-PBO) LSM", "setting": "FAS Population, OC, MMRM, W6", "value": "−0.0"}, {"measurement": "PANSS GenPsy, Effect Size", "setting": "FAS Population, OC, MMRM, W6", "value": 0.12}, {"measurement": "PANSS GenPsy, Treatment group Comparison (PIM-PBO) LSM", "setting": "FAS Population, OC, MMRM, W6", "value": "−0.8"}, {"measurement": "PANSS Pos, Effect Size", "setting": "FAS Population, OC, MMRM, W6", "value": 0.12}, {"measurement": "PANSS Pos, Treatment group Comparison (PIM-PBO) LSM", "setting": "FAS Population, OC, MMRM, W6", "value": "−0.5"}, {"measurement": "CGI-I no Chg or Worsened, (%)", "setting": "[3]", "value": "(34.7) %"}, {"measurement": "CGI-I no Chg or Worsened, Diff in % (PIM − PBO)", "setting": "[3]", "value": 4.1, "unit": "%"}]}
